Activity calls are given as the source filed them. The rule behind the calls is not given here.
Columns and labels:
[1] = Oral bioavailability in Beagle dog at 3 mg/kg administered as single dose; format: ADME, organism-based, Canis lupus familiaris; details: in vivo
[2] = physchem; details: octanol/water
[3] = system: Rattus norvegicus; test: Toxicity in rat assessed as effect on heart rate administered as single dose; format: organism-based; details: in vivo
[4] = Oral bioavailability in Wistar Han rat at 30 mg/kg administered as single dose; format: ADME, organism-based; details: in vivo
[5] = system: Canis familiaris; test: Toxicity in dog assessed as body weight loss administered as repeated dosing for 91 days; format: organism-based, Canis lupus familiaris; details: in vivo, 2184 h
[6] = Apparent intrinsic clearance in mouse microsomes; format: ADME, Microsome; details: read-out: CL(app)
[7] = system: Canis familiaris; test: Toxicity in dog assessed as effect on heart rate administered as single dose; format: organism-based, Canis lupus familiaris; details: in vivo
[8] = system: Hepatocyte; details: human, hepatocytes, 1 µM
[9] = system: Canis familiaris; test: Toxicity in dog assessed as effect on heart rate administered as repeated dosing; format: organism-based, Canis lupus familiaris; details: in vivo
[10] = target: CYP2C9 (Homo sapiens, UniProt P11712); test: Inhibition of human CYP2C9 at 10 uM; format: ADME
CYP2C9, sequence (P11712 whole entry): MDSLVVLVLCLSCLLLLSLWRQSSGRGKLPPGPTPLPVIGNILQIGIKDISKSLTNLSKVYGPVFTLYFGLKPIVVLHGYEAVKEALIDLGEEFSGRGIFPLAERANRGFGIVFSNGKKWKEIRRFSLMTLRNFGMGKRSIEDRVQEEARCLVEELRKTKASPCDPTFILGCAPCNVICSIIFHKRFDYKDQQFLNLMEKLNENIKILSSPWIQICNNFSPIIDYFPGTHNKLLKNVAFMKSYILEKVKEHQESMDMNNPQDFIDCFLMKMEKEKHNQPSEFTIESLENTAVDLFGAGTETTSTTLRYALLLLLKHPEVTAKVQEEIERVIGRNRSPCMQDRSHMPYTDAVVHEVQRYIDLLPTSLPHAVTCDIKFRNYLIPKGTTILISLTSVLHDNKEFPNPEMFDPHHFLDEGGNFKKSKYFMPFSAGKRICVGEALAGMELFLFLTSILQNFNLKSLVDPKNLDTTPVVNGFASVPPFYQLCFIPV

[11] = Fraction unbound in dog plasma at 2 uM by LC-MS/MS based equilibrium dialysis method; format: ADME, cell-free, Canis lupus familiaris
[12] = system: Canis familiaris; test: Toxicity in dog assessed as electrocardiogram changes administered as repeated dosing; format: organism-based, Canis lupus familiaris; details: in vivo
[13] = target: Tyrosine-protein kinase JAK3 (Homo sapiens) (UniProt P52333); test: Inhibition of JAK3 (unknown origin) at 1 uM by cell based assay
Tyrosine-protein kinase JAK3 (Homo sapiens), sequence (P52333 whole entry): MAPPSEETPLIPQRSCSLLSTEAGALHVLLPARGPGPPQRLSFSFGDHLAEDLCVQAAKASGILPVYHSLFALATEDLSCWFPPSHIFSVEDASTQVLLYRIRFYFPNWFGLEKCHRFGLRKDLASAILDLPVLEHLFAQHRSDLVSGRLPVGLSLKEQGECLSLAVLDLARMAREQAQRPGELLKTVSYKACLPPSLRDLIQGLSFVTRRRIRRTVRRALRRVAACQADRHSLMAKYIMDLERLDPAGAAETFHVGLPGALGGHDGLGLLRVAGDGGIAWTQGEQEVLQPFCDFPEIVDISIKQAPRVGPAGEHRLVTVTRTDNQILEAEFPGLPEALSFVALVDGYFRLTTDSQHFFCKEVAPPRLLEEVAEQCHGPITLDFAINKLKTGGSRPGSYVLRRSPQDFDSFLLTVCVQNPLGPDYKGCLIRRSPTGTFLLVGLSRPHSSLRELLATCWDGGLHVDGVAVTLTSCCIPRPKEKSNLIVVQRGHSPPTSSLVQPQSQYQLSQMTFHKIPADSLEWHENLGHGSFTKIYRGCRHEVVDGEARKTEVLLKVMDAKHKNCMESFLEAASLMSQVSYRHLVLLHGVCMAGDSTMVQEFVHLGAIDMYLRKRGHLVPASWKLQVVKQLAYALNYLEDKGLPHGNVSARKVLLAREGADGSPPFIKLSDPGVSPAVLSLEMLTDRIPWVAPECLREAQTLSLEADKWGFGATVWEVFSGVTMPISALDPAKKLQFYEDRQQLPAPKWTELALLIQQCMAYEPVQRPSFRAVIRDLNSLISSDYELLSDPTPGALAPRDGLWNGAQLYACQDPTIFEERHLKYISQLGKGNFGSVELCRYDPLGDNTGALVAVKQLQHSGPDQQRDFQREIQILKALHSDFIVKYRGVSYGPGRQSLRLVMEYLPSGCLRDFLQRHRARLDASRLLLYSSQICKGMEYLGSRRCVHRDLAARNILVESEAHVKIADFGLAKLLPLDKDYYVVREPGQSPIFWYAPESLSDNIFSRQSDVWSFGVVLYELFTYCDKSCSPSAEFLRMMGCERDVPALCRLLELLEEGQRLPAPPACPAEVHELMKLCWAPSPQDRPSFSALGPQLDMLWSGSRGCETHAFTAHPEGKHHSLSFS

[14] = in vitro; details: human, liver microsomes
[15] = system: Rattus norvegicus; test: Toxicity in rat assessed as effect on central nervous system functions administered as single dose; format: organism-based; details: in vivo
[16] = Apparent intrinsic clearance in human microsomes; format: ADME, Microsome; details: read-out: CL(app)
[17] = system: Rattus norvegicus; test: Toxicity in rat assessed as effect on blood pressure administered as repeated dosing; format: organism-based; details: in vivo
[18] = in vitro; details: dog, MDCK
[19] = system: Rattus norvegicus; test: Toxicity in rat assessed as effect on central nervous system functions administered as repeated dosing; format: organism-based; details: in vivo
[20] = Drug metabolism in human hepatocytes assessed as demethylation; format: ADME, cell-based, Hepatocyte
[21] = system: Rattus norvegicus; test: Toxicity in rat assessed as body weight loss administered as repeated dosing for 91 days; format: organism-based; details: in vivo, 2184 h
[22] = system: Canis familiaris; test: Toxicity in dog assessed as effect on blood pressure administered as single dose; format: organism-based, Canis lupus familiaris; details: in vivo
[23] = Half life in Sprague-Dawley rat blood at 1 uM by LC-MS/MS analysis; format: ADME, tissue-based
[24] = system: Rattus norvegicus; test: Toxicity in rat assessed as effect on blood pressure administered as single dose; format: organism-based; details: in vivo
[25] = Terminal half life in Wistar Han rat at 1 mg/kg, iv administered as single dose; format: ADME, organism-based; details: in vivo, read-out: beta t1/2 (converted)
[26] = system: Canis familiaris; test: Toxicity in dog assessed as effect on central nervous system functions administered as single dose; format: organism-based, Canis lupus familiaris; details: in vivo
[27] = Fraction unbound in human plasma at 2 uM by LC-MS/MS based equilibrium dialysis method; format: ADME, cell-free
[28] = Apparent intrinsic clearance in human hepatocytes; format: ADME, cell-based, Hepatocyte; details: read-out: CLH(app)
[29] = system: Rattus norvegicus; test: Toxicity in rat assessed as electrocardiogram changes administered as single dose; format: organism-based; details: in vivo
[30] = Volume of distribution at steady state in Nu/Nu mouse at 1 mg/kg, iv administered as single dose; format: ADME, organism-based; details: in vivo, read-out: Vdss
[31] = target: CYP3A4 (Homo sapiens, UniProt P08684); test: Inhibition of human CYP3A4 at 10 uM; format: ADME
CYP3A4, sequence (P08684 whole entry, the tested form may be a part): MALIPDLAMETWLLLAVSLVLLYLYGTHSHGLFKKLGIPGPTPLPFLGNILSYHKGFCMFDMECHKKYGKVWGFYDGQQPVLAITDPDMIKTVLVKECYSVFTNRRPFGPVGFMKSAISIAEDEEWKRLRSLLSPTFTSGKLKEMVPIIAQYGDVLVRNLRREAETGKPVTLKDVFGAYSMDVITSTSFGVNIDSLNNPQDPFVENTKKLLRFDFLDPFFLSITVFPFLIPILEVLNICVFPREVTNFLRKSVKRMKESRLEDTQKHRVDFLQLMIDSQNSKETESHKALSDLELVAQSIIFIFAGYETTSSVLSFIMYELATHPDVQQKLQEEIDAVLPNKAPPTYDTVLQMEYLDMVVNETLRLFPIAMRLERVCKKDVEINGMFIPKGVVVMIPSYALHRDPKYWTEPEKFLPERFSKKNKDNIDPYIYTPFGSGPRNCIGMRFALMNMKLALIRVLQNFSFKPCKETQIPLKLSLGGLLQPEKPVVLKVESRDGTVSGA

[32] = target: Activated CDC42 kinase 1 (Homo sapiens) (UniProt Q07912); test: Inhibition of GST-tagged recombinant human ACK catalytic domain (110 to 476 residues) expressed in Baculovirus expression system at 1 uM by FRET-based Z'-LYTE assay
Activated CDC42 kinase 1 (Homo sapiens), sequence (Q07912 whole entry, looked up, the tested form may be a part): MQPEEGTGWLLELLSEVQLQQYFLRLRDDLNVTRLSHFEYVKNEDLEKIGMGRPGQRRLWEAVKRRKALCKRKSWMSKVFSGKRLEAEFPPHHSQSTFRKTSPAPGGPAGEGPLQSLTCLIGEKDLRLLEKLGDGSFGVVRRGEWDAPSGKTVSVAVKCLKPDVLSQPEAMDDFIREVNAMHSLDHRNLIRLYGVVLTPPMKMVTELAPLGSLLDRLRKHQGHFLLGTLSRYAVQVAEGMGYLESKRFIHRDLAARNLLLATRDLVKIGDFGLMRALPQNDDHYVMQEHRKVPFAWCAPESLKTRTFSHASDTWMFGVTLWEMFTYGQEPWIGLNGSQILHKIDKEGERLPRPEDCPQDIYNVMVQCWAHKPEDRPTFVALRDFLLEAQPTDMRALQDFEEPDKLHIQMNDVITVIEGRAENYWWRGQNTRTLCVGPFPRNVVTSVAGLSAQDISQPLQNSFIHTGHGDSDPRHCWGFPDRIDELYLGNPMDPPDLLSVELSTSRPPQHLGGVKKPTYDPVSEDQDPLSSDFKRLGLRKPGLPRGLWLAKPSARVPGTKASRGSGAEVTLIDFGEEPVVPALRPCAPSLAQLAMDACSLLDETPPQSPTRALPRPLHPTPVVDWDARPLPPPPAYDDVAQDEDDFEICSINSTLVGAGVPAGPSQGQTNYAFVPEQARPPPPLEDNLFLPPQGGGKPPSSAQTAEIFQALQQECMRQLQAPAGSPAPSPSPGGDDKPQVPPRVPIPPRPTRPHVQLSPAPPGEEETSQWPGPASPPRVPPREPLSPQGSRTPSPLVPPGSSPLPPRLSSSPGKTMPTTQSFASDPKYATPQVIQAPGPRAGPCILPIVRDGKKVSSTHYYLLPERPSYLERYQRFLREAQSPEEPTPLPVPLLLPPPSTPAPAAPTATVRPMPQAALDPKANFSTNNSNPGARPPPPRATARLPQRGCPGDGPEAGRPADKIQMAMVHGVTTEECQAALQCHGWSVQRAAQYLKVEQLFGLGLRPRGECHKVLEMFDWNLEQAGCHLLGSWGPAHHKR

[33] = Terminal half life in Nu/Nu mouse at 1 mg/kg, iv administered as single dose; format: ADME, organism-based; details: in vivo, read-out: beta t1/2 (converted)
[34] = target: Tyrosine-protein kinase Tec (Homo sapiens) (UniProt P42680); test: Inhibition of His-tagged full-length recombinant human TEC cytoplasmic domain expressed in Baculovirus expression system at 1 uM by FRET-based Z'-LYTE assay
Tyrosine-protein kinase Tec (Homo sapiens), sequence (P42680 whole entry, the tested form may be a part): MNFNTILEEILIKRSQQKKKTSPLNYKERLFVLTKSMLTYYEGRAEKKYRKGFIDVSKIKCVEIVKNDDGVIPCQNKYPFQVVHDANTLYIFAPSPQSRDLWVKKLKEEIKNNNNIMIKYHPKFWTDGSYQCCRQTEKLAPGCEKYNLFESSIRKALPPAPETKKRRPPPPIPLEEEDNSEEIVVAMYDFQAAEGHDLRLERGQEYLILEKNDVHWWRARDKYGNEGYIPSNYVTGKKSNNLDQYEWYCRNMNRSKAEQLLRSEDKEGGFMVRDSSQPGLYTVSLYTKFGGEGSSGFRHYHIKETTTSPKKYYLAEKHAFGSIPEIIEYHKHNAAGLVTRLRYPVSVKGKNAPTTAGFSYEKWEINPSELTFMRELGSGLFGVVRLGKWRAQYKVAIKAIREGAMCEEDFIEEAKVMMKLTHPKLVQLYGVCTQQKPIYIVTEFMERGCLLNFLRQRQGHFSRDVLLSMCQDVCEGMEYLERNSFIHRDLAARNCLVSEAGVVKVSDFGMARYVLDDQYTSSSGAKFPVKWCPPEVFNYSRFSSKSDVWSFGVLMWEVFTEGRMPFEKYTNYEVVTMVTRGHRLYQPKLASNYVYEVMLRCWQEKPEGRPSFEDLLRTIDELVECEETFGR

[35] = Apparent intrinsic clearance in dog microsomes; format: ADME, Canis lupus familiaris, Microsome; details: read-out: CL(app)
[36] = system: Canis familiaris; test: Toxicity in dog assessed as effect on blood pressure administered as repeated dosing; format: organism-based, Canis lupus familiaris; details: in vivo
[37] = Apparent intrinsic clearance in rat microsomes; format: ADME, Microsome; details: read-out: CL(app)
[38] = system: Rattus norvegicus; test: Toxicity in rat assessed as effect on heart rate administered as repeated dosing; format: organism-based; details: in vivo

- bioavailability [1]: 66%
- logD [2]: 2
- bioavailability [4]: 11%
- CLint scaled [6]: 4.44 L/h/kg
- CLH [8]: 3 µL/min/mg
- inhibition at 10 µM [10]: < 30%
- fraction unbound at 2 µM [11]: 0.75
- inhibition [13]: Active
- microsomal CLint at […], 1 µM [14]: 8 µL/min/mg
- CLint scaled [16]: < 0.36 L/h/kg
- Papp [18]: 90 nm/s
- Drug metabolism [20]: Metabolite_Detected
- half-life at 1 µM [23]: 237 min
- half-life [25]: 16.8 min
- fraction unbound at 2 µM [27]: 0.27
- CLint scaled [28]: 0.18 L/h/kg
- Vd [30]: 1.48 L/kg
- inhibition at 10 µM [31]: < 30%
- inhibition [32]: > 50%
- half-life [33]: 33.6 min
- inhibition [34]: > 50%
- CLint scaled [35]: 0.18 L/h/kg
- CLint scaled [37]: 8.46 L/h/kg
Compound: C=CC(=O)N[C@@H]1CN(c2nc(Nc3cn(C)nc3OC)c3ncn(C)c3n2)C[C@H]1F [MAVELERTINIB]
- Activity [3]: Non-Toxic
- Activity [5]: Non-Toxic
- Activity [7]: Non-Toxic
- Activity [9]: Non-Toxic
- Activity [12]: Non-Toxic
- Activity [15]: Non-Toxic
- Activity [17]: Non-Toxic
- Activity [19]: Non-Toxic
- Activity [21]: Non-Toxic
- Activity [22]: Non-Toxic
- Activity [24]: Non-Toxic
- Activity [26]: Non-Toxic
- Activity [29]: Non-Toxic
- Activity [36]: Non-Toxic
- Activity [38]: Non-Toxic
